In patent publication US7642261B2, “Use of 1-[4-(5-cyanoindol-3-yl)butyl]-4-(2-carbamoyl-benzofuran-5-yl)-piperazine and its physiologically acceptable salts” (Merck Patent GmbH, priority 2002, dated 2010):

Tests used:
Assay type in all cases: in vivo
[1] = Development of body weight, dogs
Excerpt: (§1) Thus, differential effects on body weight indicating therapeutic efficacy in either obesity or anorexia depending on the dose range used are evident.

[2] = Cumulative Food Intake / development of body weight, rats or mice; settings: free access to food
Method: A typical animal model for eating disorders and/or obesity and/or anorexia is named Cumulative Food Intake according to H. C. Jackson, A. M, Needham, L. J. Hutchins, S. E. Mazurkiewicz, D. J. Heal, Br. J. Pharmacol., 1997, 121: 1758-1762, which can be utilized in various species. Usually, rats or mice are given free access to food, and the development of body weight is measured over time. The test can be performed in both starved and non-starved rats or mice. Moreover, chronic or acute administration of a medication can be investigated.
as §1

mice [3] = assay: Four Plate Test (model for acute stress indication); settings: oral dose of 3 mg/kg, five minute test period
Method: A typical model for acute stress indication is the Four Plate Test according to C. Aron, P. Simon, C. Larousse, J. R. Boissier, Neuropharmacology 1971, 10: 459-469.
The apparatus consists of small box with a floor made up of four metal plates. Each time the mouse crosses from one plate to another, it is given a brief electric footshock reducing the amount of exploratory behavior. The number of punished crossings from one plate to another (i.e. number of shocks accepted by the animal) is recorded during a five minute test period. Normal mice make only few punished crossings, i.e. accept only a few footshocks.
1-[4-(5-cyanoindol-3-yl)butyl]-4-(2-carbamoyl-benzofuran-5-yl)-piperazine hydrochloride following and oral dose of 3 mg/kg increased the number of punished crossings by 41%.

mice [4] = assay: Elevated Plus Maze (model for agoraphobia), mice; settings: 10 mg/kg p.o., 3 min test period
Method: A typical model for Agoraphobia is named Elevated Plus Maze according to S. Pellow, P. Chopin, S. E. File, M. Briley, J. Neurosci. Meth., 1985,14: 145-167.
The apparatus consists of an X-shaped platform elevated from the floor, with two “open” unprotected arms and two “closed” protected arms, with animals having free access to both arms. The rat or mouse is placed in the centre of the arms, and the number of entires made and the time spent on the open arms is measured in a 3 min test period. Normal animals have very low basal levels, i.e. avoid entering the open arms and stay only a for a very brief period on open arms.
In rats, a dose of 10 mg/kg p.o. increased number of entries by 56% and time spent on open arms by 76%.

mice [5] = assay: Neophobia model: unfamiliar food in a novel environment; settings: mice deprived from food for 18 h, oral application, 3 mg/kg
Method: In a typical model for neophobia, mice deprived from food for 18 h are given access to unfamiliar food in a novel environment [P. Soubrie at al., Psychopharmacologica, 1975, 45: 203-210]. 1-[4-(5-cyanoindol-3-yl)butyl]-4-(2-carbamoyl-benzofuran-5-yl)-piperazine or one of its physiologically acceptable salts, in particular 1-[4-(5-cyanoindol-3-yl)butyl]-4-(2-carbamoyl-benzofuran-5-yl)-piperazine hydrochloride, following oral application increased food intake by 21% at the dose of 3 mg/kg.

rats [6] = assay: Models for anxiety associated with posttraumatic stress (cat stressor; hole board, elevated plus maze, acoustic startle); settings: given after (acute treatment) and before (prophylactic treatment) the cat stressor
Excerpt: Animal models of anxiety associated with posttraumatic stress in rats utilize the long-lasting behavioural changes induced by exposure to a native stressor. The therapeutic effects of a compound effective for the acute treatment of anxiety associated with posttraumatic stress are modelled by administration of the compound after exposure to the stressor. The therapeutic effects of a compound effective for the prophylactic treatment of anxiety associated with posttraumatic stress are modelled by administration of the compound before exposure to the stressor. Amongst the several behavioral test procedures, the following is most validated [R. E. Adamec and T. Shallow, Physiology Behavior, 1993, 54: 101-109; R. E. Adamec et al., Behav. Neurosci. 1997, 111: 435-449]. […] The hole board consists of a box (60 cm×60 cm) with four evenly spaced holes; the number of poking its head into a hole is counted for 5 minutes. […] The rat is placed in the centre of the arms, and the frequency of attempts to enter an open arm (risk assessment) as well as the time spent on the open and closed arms are measured. In the acoustic startle test, the rat is placed in a plexiglass cylinder, and a series of 20 white noise bursts of 120 dB out of a background noise of 60 dB is applied, and the latency to and the peak startle amplitude are measured. […]

rats [7] = assay: Animal models of sexual function (behavioural measures for sexual activity); settings: penile erection, ejaculatory behaviour, mating frequency in male rats, receptive behaviours in female rats
Excerpt: In animal models, various behavioural measures for sexual function can be used in animal models depending on the targeted dysfunction in humans, e.g. reduced libido, anorgasmia, or ejaculation disorders. Measures for sexual activity in animals include fascilitation or prolongation of penile erection, ejaculatory behaviour or frequency of mating behaviour in male rats, or the percentage of receptive behaviours in female rats [e.g.: S. Ahlenius and K. Larsson, Neurochem. Res., 1997, 22: 1065-1070; S. Ahlenius and K. Larsson, Psychopharmacology, 1998, 137: 374-382; J. Vega-Matuszcyk et al., Pharmacol. Biochem. Behav., 1998, 60: 527-532; J. M. Cantor et al., Psychopharmacology, 1999; 144: 355-362]. 1-[4-(5-cyancindol-3-yl)butyl]-4-(2-carbamoyl-benzofuran-5-yl)-piperazine or one of its physiologically acceptable salts, in particular 1-[4-(5-cyanoindol-3-yl)butyl]-4-(2-carbamoyl-benzofuran-5-yl)-piperazine hydrochloride, were effective on various measures mentioned before.

SMILES: Cl.N#Cc1ccc2[nH]cc(CCCCN3CCN(c4ccc5oc(C(N)=O)cc5c4)CC3)c2c1 [1-[4-(5-cyanoindol-3-yl)butyl]-4-(2-carbamoyl-benzofuran-5-yl)-piperazine hydrochloride]
- development of body weight [1]: reduced development of body weight
- body weight at lower doses ([2]; orally for 4 consecutive days, lower doses of up to 50 mg/kg): increased body weight
- development of body weight at higher doses ([2]; orally up to 360 mg/kg for 4 consecutive days, higher doses): reduced development of body weight
- increase of number of punished crossings (mice [3]): 41%
- increase of number of entries on open arms (mice [4]): 157%
- increase of time spent on open arms (mice [4]): 105%
- increase of food intake (mice [5]): 21%
- effect in models for anxiety associated with posttraumatic stress (rats [6]): effective
- effect on measures for sexual activity (rats [7]): effective
